We go through two compounds from article PMC8480759, “Inhibitors of histone deacetylase 6 based on a novel 3-hydroxy-isoxazole zinc binding group” (Journal of Enzyme Inhibition and Medicinal Chemistry, 2021).

The subject of assay [1] is acetylation levels of histone H3 (HDAC1 target) in DU145 cells. Put plainly: Western blot of histone H3 acetylation in DU145 cells. To be noted: 24 h, 10 µM. In kind it is cell-based, human. How it is done:
(§1) The results corroborate the inhibitory activity of 17, 23, 25 and 27 at concentrations lower than 10 µM. […] HDACs contribution to CRPC is known[20] and the possibility to arrest CRPC proliferation by acting on HDAC targets is expanding in the scientific literature[21]^,[22]. After administration of the selected compounds for 24 h at 10 µM concentration, the effect on the acetylation levels of histone H3 and α-tubulin (respectively, HDAC1 and HDAC6 targets) was investigated. […] Lastly, in the same cell line, the anti-proliferative effect was measured in dose and time dependent manner (Figure S4).
Figure S3. Western blotting analysis of the tested and reference compounds SAHA and Tubastatin A on acetylation levels of histone H3 and α-tubulin in DU145 cells. GAPDH and H4 were used as a loading control. Densitometric values were analyzed using ImageJ Software and are reported on the top of bands as the ratio between loading control and acetylated target.
(1 picture or pasted object on this page, not shown here) […]
1.4 Western blot analysis
The prostate cancer cell line DU145 (ATCC) was grown in RPMI medium (Euroclone, Milan, Italy) with 10% fetal bovine serum (Euroclone), 2 mM L-glutamine (Euroclone), and antibiotics (100 U/mL penicillin, […] streptomycin) (Euroclone). Cells were stimulated with drugs for […]
Total Protein Extraction and western blot
After the induction with the test compounds at the indicated times and concentrations, DU145 cells were then harvested, washed with phosphate-buffered saline (PBS) (Euroclone), and lysed for 15 min at 4 °C in lysis extraction buffer with protease and phosphatase inhibitors (50 mM Tris -HCl pH 8.0, 150 mM NaCl, 1% NP40, 10 mM sodium fluoride, 0.1 mM sodium orthovanadate, […] phenylmethylsulfonyl fluoride 58 (PMSF), 20 g/mL aprotinin, […] leupeptin, […] antipain, 10 mM p -nitrophenyl phosphate, […] pepstatin A and 20 nM okada ic acid). Cells were vortexed then centrifuged at 13000 rpm for 30 min at 4 °C. Bradford assay (Biorad, Italy) was used to quantify protein concentration. […] The immune complexes were first detected with horseradish peroxidase-conjugated species-specific secondary antiserum (Bio-Rad Laboratories, Milan, Italy), and then by an enhanced chemiluminescence reaction (Bio-Rad Laboratories, Milan, Italy). […]
were harvested and washed twice with cold 1× PBS and lysed in Triton extraction buffer (TEB; PBS containing 0.5% Triton X 100 (v/v), 2 mM PMSF, and 0.02% (w/v) NaN3) for 10 min on ice, with gentle stirring. […] The samples were then centrifuged at 2000 rpm for 10 min at 4 °C; the concentration of protein in the supernatant was determined […]
using a Bradford assay (Bio-Rad, CA, USA). […] Semi-quantitative analysis was performed using ImageJ software. […]
On the technique in general: In western blotting, separated proteins are transferred to a membrane and probed.

The test system of assay [2] is acetylation levels of α-tubulin (HDAC6 target) in DU145 cells. The assay is described as follows: Western blot of α-tubulin acetylation in DU145 cells. The class given is cell-based, human. The note with it: 24 h, 10 µM. How it is done: as §1
Figure S3. Western blotting analysis of the tested and reference compounds SAHA and Tubastatin A on acetylation levels of histone H3 and α-tubulin in DU145 cells. GAPDH and H4 were used as a loading control. Densitometric values were analyzed using ImageJ Software and are reported on the top of bands as the ratio between loading control and acetylated target. […]
The resulting mixtures were incubated at 37 °C for 45min , after which 25 µL of 2X HDAC developer were added. Following incubation at RT for 15 min, fluorescence intensity was measured using a microplate reader (GloMax Discover System, Promega) at 365nm excitation and […] emission wavelengths.
IC50 values were calculated using the GraphPad Prism 6 program based on a log(inhibitor) vs response (variable slope) sigmoidal equation. […]

In the case of `Oc1cc(-c2ccc(NCc3ccccc3)cc2)on1` [Compound 23], the “effect on acetylation levels of histone H3” value in assay [1] is listed as “no effect”. In assay [2], the “effect on acetylation of α-tubulin” value is given as “increased”.
Consider `Oc1cc(-c2ccc3c(c2)OCO3)on1` [Compound 25], for which the “effect on acetylation levels of histone H3” value in assay [1] was “no effect”. The “effect on acetylation of α-tubulin” value in assay [2] is on record as “increased”.
